Results published in US20230365558A1, “TETRAHYDROISOQUINOLINE DERIVATIVE AND USE THEREOF” (MEDSHINE DISCOVERY INC., priority 2020, published 2023).
Read-outs that look alike come from different tables or passages of the source.

Columns and labels:
[1] = test system: Z-138 non-Hodgkin's lymphoma cells; test: In vitro anti-proliferation assay of Z-138 cells (CellTiter-Glo, 6 days); format: cell-based, human; details: read-out: IC50 (nM), in vitro anti-proliferative activity on Z-138 tumor cells
Procedure: The plate was incubated at 37° C., CO2 and 100% relative humidity for 6 days. Samples were processed using Promega CellTiter-Glo Luminescent Cell Viability Assay Kit (Promega-G7571) standard method, and the luminescent signal was detected on a TECAN Spark®10M plate reader. Raw data were used to calculate the inhibition rate of the test compounds using the following equation: […]
(§1) The inhibition rates were imported into Excel separately to calculate the inhibition rates of compounds at different concentrations, and then XLfit software was used to plot inhibition curves and calculate relevant parameters, including minimum inhibition rate, maximum inhibition rate and IC50.

PRMT5 enzyme = PRMT5 enzyme (Homo sapiens (Human), UniProt O14744); test: PRMT5 enzyme inhibitory activity assay (LANCE Ultra TR-FRET); format: biochemical
Procedure: Experimental objective: To test the inhibitory effect of compounds on PRMT5 enzyme activity
Experimental materials: PRMT5 enzyme
The plate was incubated at 25° C. for 30 min, then added with substrate, and reacted at 25° C. for 90 min. After 90 min, the detection reagent was added to the 384-well plate using PerkinElmer LANCE Ultra TR-FRET standard method to combine with the enzyme-substrate reaction product. […] Raw data were used to calculate the inhibition rate of the test compounds using the following equation: […]
as §1

[2] = Pharmacokinetic evaluation in CD-1 mice; details: for Clearance rate CL / Concentration integral AUC / Half-life T1/2 / Bioavailability F: CD-1 mice; for AUC / clearance / half-life / bioavailability: male, CD-1, mouse, in vivo
Procedure: Experimental objective: To study the pharmacokinetic parameters of the compounds in CD-1 mice
Animal experimental design: Male CD-1 mice (28.08 to 29.01 g, 6 to 7 weeks old), purchased from Shanghai Family Planning Research Institute, n=2/group, 4 mice in total; blood collection time points (h): 0.083 (intravenous injection only), 0.25 (intragastric administration only), 0.5, 1, 2, 4, 8, 10 and 24; compound dose by tail vein injection: 1 mg/kg; single dose by intragastric administration: 5 mg/kg; intravenous and intragastric administration vehicles: 20% N,N-dimethylacetamide aqueous solution, 20% hydroxypropyl-β-cyclodextrin aqueous solution, 5% DMSO/50% PEG400/45% water for injection or 10% Solutol/30% PEG400/60% water for injection. All animals had free access to water during the experiment, fasted overnight before administration, and resumed food supply 4 hours after administration. The entire animal experiment complied with the Institutional Animal Care and Use Committee (IACUC) animal welfare.
Sample collection and storage: After administration, approximately 0.03 mL of blood was collected from the saphenous vein of the mouse at each time point into a pre-frozen commercial EDTA-K2 tube, and placed on wet ice until centrifugation. Blood samples were centrifuged at 4° C., 3,200 g for 10 min. Plasma was collected separately, transferred to a pre-labeled 96-well plate, fast frozen on dry ice, and stored at −70±10° C. until LC-MS/MS analysis.
Pre-treatment of plasma samples: 3 μL of unknown, standard curve, QC, diluted QC and single and double blank samples were taken and placed in 1.5 mL tubes, and 60 μL of internal standard solution (internal standard: Labetalol 100 ng/mL acetonitrile solution, double blank with the same volume of pure acetonitrile) was added. The samples were vortexed for at least 15 seconds, and centrifuged at 4° C., 12,000 g for 15 min. 50 μL of the supernatant was taken and placed on a clean 96-well plate, and 200 μL of 70% acetonitrile was added. The plate was vortex at 800 rpm for 10 min, and centrifuged at 4° C., 3,220 g for 5 min. 2.0 μL of the supernatant was taken for LC-MS/MS analysis. 10-fold sample dilution procedure: 2 μL of the sample was added to 18 μL of blank matrix; 2-fold sample dilution procedure: 2 μL of the sample was added to 2 μL of blank matrix. Plasma was processed in the same manner as undiluted samples. The linear range was 4.00 to 6000 nM. Plasma concentrations would be analyzed with Triple Quad 6500 Plus, and pharmacokinetic parameters would be calculated with Phoenix WinNonlin 6.3.

[3] = injection administration (1 mg/kg)

PRMT5 enzyme, sequence (O14744 whole entry): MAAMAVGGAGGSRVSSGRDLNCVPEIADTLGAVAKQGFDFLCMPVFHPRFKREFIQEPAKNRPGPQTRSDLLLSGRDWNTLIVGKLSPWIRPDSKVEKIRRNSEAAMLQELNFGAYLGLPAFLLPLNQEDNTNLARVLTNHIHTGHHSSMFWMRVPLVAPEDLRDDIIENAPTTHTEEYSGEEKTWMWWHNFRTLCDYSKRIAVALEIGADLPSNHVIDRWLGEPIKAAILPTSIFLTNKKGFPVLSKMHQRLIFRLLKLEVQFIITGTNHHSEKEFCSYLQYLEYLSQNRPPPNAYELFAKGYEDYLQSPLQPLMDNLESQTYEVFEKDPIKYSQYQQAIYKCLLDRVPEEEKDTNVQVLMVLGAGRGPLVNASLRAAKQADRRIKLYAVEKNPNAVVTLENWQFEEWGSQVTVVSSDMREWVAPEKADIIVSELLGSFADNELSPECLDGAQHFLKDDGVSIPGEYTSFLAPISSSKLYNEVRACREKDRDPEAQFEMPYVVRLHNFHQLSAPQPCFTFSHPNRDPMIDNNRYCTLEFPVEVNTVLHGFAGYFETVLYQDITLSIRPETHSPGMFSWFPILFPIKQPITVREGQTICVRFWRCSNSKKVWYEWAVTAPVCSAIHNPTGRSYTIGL
PRMT5 enzyme, sequence (Q9BQA1 whole entry partner): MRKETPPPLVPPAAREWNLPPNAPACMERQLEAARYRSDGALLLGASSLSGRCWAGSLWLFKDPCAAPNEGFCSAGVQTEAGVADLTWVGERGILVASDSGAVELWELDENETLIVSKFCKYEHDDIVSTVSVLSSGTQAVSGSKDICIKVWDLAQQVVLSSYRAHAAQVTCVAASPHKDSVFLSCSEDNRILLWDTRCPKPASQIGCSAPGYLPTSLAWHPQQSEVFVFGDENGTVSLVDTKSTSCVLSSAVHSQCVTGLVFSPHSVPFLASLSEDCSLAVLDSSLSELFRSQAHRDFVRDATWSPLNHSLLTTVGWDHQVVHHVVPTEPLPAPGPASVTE

SMILES: CCOC1CC2(C1)Oc1ccc(C(=O)NC[C@H](O)CN3CCc4ccccc4C3)cc1NC2=O (stereo partly drawn) [Compound 22]
- IC50 [1]: 12 nM

SMILES: COCCOC1CC2(C1)Oc1ccc(C(=O)NC[C@H](O)CN3CCc4ccccc4C3)cc1NC2=O (stereo partly drawn) [Compound 24]
- IC50 (PRMT5 enzyme): 15 nM
- IC50 [1]: 22 nM

SMILES: O=C(NC[C@H](O)CN1CCc2ccccc2C1)c1cnc2c(c1)NC(=O)C1(CC(F)(F)C1)O2 [Compound 29]
- IC50 (PRMT5 enzyme): 16 nM
- IC50 [1]: 6 nM
- Clearance rate CL [2, 3]: 37.9 mL/min/kg
- Concentration integral AUC [2, 3]: 0.981 µM·h
- Half-life T1/2 [2, 3]: 35.4 min
- Bioavailability F ([2]; oral administration (5 mg/kg)): 8.99%
- Concentration integral AUC ([2]; oral administration (5 mg/kg)): 0.441 µM·h

SMILES: COCCOC1CC2(C1)Oc1ccc(C(=O)NC[C@H](O)CN3CCc4ccccc4C3)cc1NC2=O (stereo partly drawn) [Compound 23]
- IC50 (PRMT5 enzyme): 18 nM
- IC50 ([1]; Homo sapiens, Z-138, 144 h): 23 nM

SMILES: O=C(NC[C@H](O)CN1CCc2ccccc2C1)c1ccc2c(c1)NC(=O)C1(CC(O)C1)O2 (stereo partly drawn) [Compound 18]
- IC50 ([1]; Homo sapiens, Z-138, 144 h): 18 nM
- AUC ([2]; 1 mg/kg): 0.545 µM·h
- clearance ([2]; 1 mg/kg): 71.3 mL/min/kg
- half-life ([2]; 1 mg/kg): 24.6 min
- AUC ([2]; po, 5 mg/kg): 0.164 µM·h
- bioavailability ([2]; po, 5 mg/kg): 6.02%

SMILES: O=C(NC[C@H](O)CN1CCc2ccccc2C1)c1ccc2c(c1)NC(=O)C1(CN(CC(F)(F)F)C1)O2 [Compound 10]
- IC50 ([1]; Homo sapiens, Z-138, 144 h): 23 nM
- AUC ([2]; 1 mg/kg): 0.785 µM·h
- clearance ([2]; 1 mg/kg): 42.1 mL/min/kg
- half-life ([2]; 1 mg/kg): 33 min
- AUC ([2]; po, 5 mg/kg): 0.572 µM·h
- bioavailability ([2]; po, 5 mg/kg): 14.6%

SMILES: O=C(NC[C@H](O)CN1CCc2ccccc2C1)c1ccc2c(c1)NC(=O)C1(CCCCC1)O2 [Compound 3]
- IC50 (PRMT5 enzyme): 18 nM
- IC50 [1]: 78 nM
- Clearance rate CL [2, 3]: 78.1 mL/min/kg
- Concentration integral AUC [2, 3]: 0.474 µM·h
- Half-life T1/2 [2, 3]: 9.6 min
- Bioavailability F ([2]; oral administration (5 mg/kg)): 7.2%
- Concentration integral AUC ([2]; oral administration (5 mg/kg)): 0.171 µM·h

SMILES: CC(C)N1CC2(C1)Oc1ccc(C(=O)NC[C@H](O)CN3CCc4ccccc4C3)cc1NC2=O [Compound 9]
- IC50 (PRMT5 enzyme): 36 nM
- IC50 ([1]; Homo sapiens, Z-138, 144 h): 100 nM
- AUC ([2]; 1 mg/kg): 0.336 µM·h
- clearance ([2]; 1 mg/kg): 107 mL/min/kg
- half-life ([2]; 1 mg/kg): 129 min
- AUC ([2]; po, 5 mg/kg): 0.168 µM·h
- bioavailability ([2]; po, 5 mg/kg): 10%

SMILES: O=C(NC[C@H](O)CN1CCc2ccccc2C1)c1cc2c(cc1F)OC1(CC1)C(=O)N2 [Compound 32]
- IC50 ([1]; Homo sapiens, Z-138, 144 h): 19 nM

SMILES: O=C(NC[C@H](O)CN1CCc2ccccc2C1)c1cnc2c(c1)NC(=O)C1(CCC1)O2 [Compound 6]
- IC50 [1]: 6 nM
- Clearance rate CL [2, 3]: 42.1 mL/min/kg
- Concentration integral AUC [2, 3]: 0.944 µM·h
- Half-life T1/2 [2, 3]: 14.4 min
- Bioavailability F ([2]; oral administration (5 mg/kg)): 16.4%
- Concentration integral AUC ([2]; oral administration (5 mg/kg)): 0.773 µM·h

SMILES: O=C(NC[C@H](O)CN1CCc2ccccc2C1)c1ccc2c(c1)NC(=O)C1(CCCC1)O2 [Compound 2]
- IC50 (PRMT5 enzyme): 128 nM
- IC50 [1]: 24 nM
- Clearance rate CL [2, 3]: 39.7 mL/min/kg
- Concentration integral AUC [2, 3]: 0.967 µM·h
- Half-life T1/2 [2, 3]: 33.6 min
- Bioavailability F ([2]; oral administration (5 mg/kg)): 8.6%
- Concentration integral AUC ([2]; oral administration (5 mg/kg)): 0.417 µM·h

SMILES: O=C(NC[C@H](O)CN1CCc2ccccc2C1)c1ccc2c(c1)NC(=O)C1(CCOCC1)O2 [Compound 4]
- IC50 (PRMT5 enzyme): 22 nM
- Clearance rate CL [2, 3]: 63.3 mL/min/kg
- Concentration integral AUC [2, 3]: 0.583 µM·h
- Half-life T1/2 [2, 3]: 16.2 min
- Bioavailability F ([2]; oral administration (5 mg/kg)): 21.5%
- Concentration integral AUC ([2]; oral administration (5 mg/kg)): 0.626 µM·h

SMILES: O=C(NC[C@H](O)CN1CCc2ccccc2C1)c1ccc2c(c1)NC(=O)C1(CC(F)(F)C1)O2 [Compound 28]
- IC50 ([1]; Homo sapiens, Z-138, 144 h): 10 nM

SMILES: CC(=O)N1CC2(C1)Oc1ccc(C(=O)NC[C@H](O)CN3CCc4ccccc4C3)cc1NC2=O [Compound 11]
- IC50 ([1]; Homo sapiens, Z-138, 144 h): 88 nM

SMILES: CCOC1CC2(C1)Oc1ccc(C(=O)NC[C@H](O)CN3CCc4ccccc4C3)cc1NC2=O (stereo partly drawn) [Compound 21]
- IC50 ([1]; Homo sapiens, Z-138, 144 h): 18 nM

SMILES: O=C(NC[C@H](O)CN1CCc2ccccc2C1)c1ccc2c(c1)NC(=O)C1(CC1)O2 [Compound 7]
- IC50 [1]: 73 nM
- Clearance rate CL [2, 3]: 17.7 mL/min/kg
- Concentration integral AUC [2, 3]: 2.313 µM·h
- Half-life T1/2 [2, 3]: 82.8 min
- Bioavailability F ([2]; oral administration (5 mg/kg)): 64.2%
- Concentration integral AUC ([2]; oral administration (5 mg/kg)): 7.419 µM·h

SMILES: O=C(NC[C@H](O)CN1CCc2ccccc2C1)c1ccc2c(c1)NC(=O)C1(CSC1)O2 [Compound 38]
- IC50 ([1]; Homo sapiens, Z-138, 144 h): 18 nM

SMILES: O=C(NC[C@H](O)CN1CCc2ccccc2C1)c1cc2c(nn1)OC1(CC1)C(=O)N2 [Compound 16]
- IC50 [1]: 90 nM

SMILES: COc1cc2c(cc1C(=O)NC[C@H](O)CN1CCc3ccccc3C1)NC(=O)C1(CC1)O2 [Compound 47]
- IC50 (PRMT5 enzyme): 42 nM
- IC50 [1]: 66.8 nM

SMILES: O=C(NC[C@H](O)CN1CCc2ccccc2C1)c1ccc2c(c1)NC(=O)[C@@]1(CCOC1)O2 [Compound 35]
- IC50 (PRMT5 enzyme): 11 nM
- IC50 [1]: 22 nM

SMILES: O=C(NC[C@H](O)CN1CCc2ccccc2C1)c1cnc2c(c1)NC(=O)C21CC1 [Compound 42]
- IC50 [1]: 53 nM

SMILES: CC(C)OC1CC2(C1)Oc1ccc(C(=O)NC[C@H](O)CN3CCc4ccccc4C3)cc1NC2=O (stereo partly drawn) [Compound 26]
- IC50 ([1]; Homo sapiens, Z-138, 144 h): 22 nM

SMILES: COCCN1CC2(C1)Oc1ccc(C(=O)NC[C@H](O)CN3CCc4ccccc4C3)cc1NC2=O [Compound 13]
- IC50 ([1]; Homo sapiens, Z-138, 144 h): 47 nM

SMILES: CS(=O)(=O)N1CC2(C1)Oc1ccc(C(=O)NC[C@H](O)CN3CCc4ccccc4C3)cc1NC2=O [Compound 14]
- IC50 ([1]; Homo sapiens, Z-138, 144 h): 14 nM

SMILES: O=C(NC[C@H](O)CN1CCc2ccccc2C1)c1ccc2c(c1)NC(=O)C1(CS(=O)(=O)C1)O2 [Compound 37]
- IC50 (PRMT5 enzyme): 8 nM
- IC50 [1]: 8 nM

SMILES: O=C(NC[C@H](O)CN1CCc2ccccc2C1)c1ccc2c(c1)NC(=O)[C@]1(CCOC1)O2 [Compound 36]
- IC50 (PRMT5 enzyme): 7 nM
- IC50 [1]: 7 nM
- Clearance rate CL [2, 3]: 66.3 mL/min/kg
- Concentration integral AUC [2, 3]: 0.576 µM·h
- Half-life T1/2 [2, 3]: 13.2 min
- Bioavailability F ([2]; oral administration (5 mg/kg)): 37.9%
- Concentration integral AUC ([2]; oral administration (5 mg/kg)): 1.092 µM·h

SMILES: O=C1CC2(C1)Oc1ccc(C(=O)NC[C@H](O)CN3CCc4ccccc4C3)cc1NC2=O [Compound 27]
- IC50 ([1]; Homo sapiens, Z-138, 144 h): 4 nM
